In US8729047B2, “Compositions for inhibiting redox-sensitive GTPases” (Board of Regents, The University of Texas System, priority 2010, dated 2014):
Like-named read-outs stand apart in the source and are kept apart here.

Experiments:
Ras = Ras (Homo sapiens, UniProt P01112); experiment: [3H]GDP displacement of 6-TGDP from .NO2-treated 6-TGDP-loaded GTPase with/without DTT (FIG. 13B); assay type: binding
Description: (§1) FIG. 13. Guanine nucleotide exchange of small GTPases with 6-TGDP. (A) To monitor 6-TGDP-mediated GTPase GDP dissociation, [^3H]GDP-loaded GTPase (1 μM) was incubated with 6-TGDP (0-2000 μM) for 1 h. (B) To monitor GTPase 6-TGDP dissociation by GDP (0-2000 μM) in the presence and absence of dithiothreitol (DTT), 6-TGDP-loaded GTPase (˜1 μM) was treated with .NO2 (˜3 μM) under anaerobic conditions and was incubated with various concentrations of [^3H]GDP (0-2000 μM) in the presence and absence of DTT (10 mM) for 1 h. For all assays, aliquots were withdrawn and spotted onto nitrocellulose filters. The filters were then washed three times with an assay buffer, and radioactivity was determined using a Beckman-Coulter scintillation counter. The resultant radioactivity (dpm) values associated with GTPase-bound [^3H]GDP were converted into the fraction of mol nucleotide per mol total GTPase. The data presented represent mean and standard error values from triplicate measurements. The apparent dissociation constants (appKD values) of GTPase 6-TGDP association ([^3H]GDP dissociation, A); and 6-TGDP dissociation ([3H]GDP association, B) were obtained by fitting the data to a simple dissociation and association, respectively. (A) The ^appKD values of Ras, RhoC, RhoA and Rac1 for 6-TGDP, are, respectively, 2300, 230, 224, and 245 μM [6-TGDP]. (B) The appKD values of RhoC with and without DTT are, respectively, 560, and 1000 μM [[^3H]GDP], whereas the ^appKD values of Ras with and without DTT are 530, and 520 μM [[^3H]GDP], respectively. The standard errors of each ^appKD value are less than 10% of their given values, and regression values associated with the fit were r^2>0.9560.
The ^appKD [3H]GDP was converted into ^trueKD [3H]GDP by using a compensation equation, ^trueKD [3H]GDP=^appKD [3H]GDP/(1+[6-TGDP]/^trueKD GDP) (Segel, I. H. (1993) Enzyme kinetics, A Wiley-Interscience publication, New York) (see above)). The calculated ^trueKD [3H]GDP values of RhoC in the presence and absence of DTT were estimated to be 516 μM and 923 μM, respectively. […] Treatment with DTT, a reducing agent, disrupts the disulfide bond between RhoC and 6-TGDP, liberating 6-TGDP from RhoC, and thereby permitting [^3H]GDP to bind to RhoC.

Rac1 = Rac1 (Homo sapiens, UniProt P63000); experiment: Guanine nucleotide exchange of [3H]GDP-loaded GTPase with 6-TGDP (FIG. 13A); assay type: binding; parameters: made in house; host or cells: E. coli
Description: as §1
A kinetic assay method using radiolabeled GDP ([^3H]GDP) was established. The apparent dissociation constants (^appKD 6-TGDP) of Rho GTPases (including RhoA, Cdc42, and Rac1/2/3) and Ras with 6-TGDP were determined (FIG. 13). The results of this preliminary kinetic study provided strong support for the mechanism proposed for the role of 6-TGNP in RhoC inactivation (FIG. 7).
The true dissociation constant (^trueKD 6-TGDP) of Ras, RhoC, RhoA and Rac1 for 6-TGDP was then calculated to be ˜20.7 pM, 212 μM, 208 μM, and 158 μM [6-TGDP] by using a compensation equation, ^trueKD 6-TGDP=^appKD 6-TGDP/(1+[GDP]/^trueKD GDP) (95), in conjunction with the values given [(^appKD 6-TGDP of Ras, RhoC, RhoA, and Rac1=2300, 230, 224, and 245 μM (FIG. 13) and ^trueKD GDP=9 pM, 12 μM, 13 μM and 1.8 μM, respectively. The ^trueKD GDP of Ras, RhoA and Rac1 was determined previously (Lenzen et al. Biochemistry 37, 7420-7430 (1998); Heo et al. Biochemistry 44, 6573-6585 (2005)) and the ^trueKD GDP of RhoC was further determined. Example: ^trueKD 6-TGDP for Ras=2300 μM/(1+1 μM GDP/[…])=[…] [6-TGDP]].

Chain of Ras (P01112 whole entry): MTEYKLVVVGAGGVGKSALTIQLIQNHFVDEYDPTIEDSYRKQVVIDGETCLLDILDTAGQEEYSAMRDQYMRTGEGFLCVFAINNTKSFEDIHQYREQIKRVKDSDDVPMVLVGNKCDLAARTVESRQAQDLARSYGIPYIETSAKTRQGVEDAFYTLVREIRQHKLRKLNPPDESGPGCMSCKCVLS

SMILES	Kd (Ras; absence of DTT, calculated by compensation equation, read-out: trueKD [3H]GDP)	Kd (Ras; presence of DTT, calculated by compensation equation, read-out: trueKD [3H]GDP)	Kd (Ras; with DTT 10 mM, 6-TGDP-loaded GTPase ~1 μM treated with .NO2 ~3 μM, anaerobic, 1 h, read-out: appKD for [3H]GDP (6-TGDP dissociation))	Kd (Ras; without DTT, 6-TGDP-loaded GTPase ~1 μM treated with .NO2 ~3 μM, anaerobic, 1 h, read-out: appKD for [3H]GDP (6-TGDP dissociation))	Kd (Rac1; [3H]GDP-loaded GTPase 1 μM, 6-TGDP 0-2000 μM, 1 h, FIG. 13A, read-out: appKD for 6-TGDP)	Kd (Rac1; calculated by compensation equation from appKD 6-TGDP and trueKD GDP, read-out: trueKD 6-TGDP)
Nc1nc2c(ncn2[C@@H]2O[C@H](COP(=O)(O)OP(=O)(O)O)[C@@H](O)[C@H]2O)c(=O)[nH]1 [GDP]	0.0048 µM	0.0047 µM	530 µM	520 µM		
Nc1nc2c(ncn2[C@@H]2O[C@H](COP(=O)(O)OP(=O)(O)O)[C@@H](O)[C@H]2O)c(=S)[nH]1 [6-TGDP, 6-thioguanosine diphosphate]					245 µM	158 µM
